According to PMC12668310, “High‐Throughput Synthesis and Screening of a Cyanimide Library Identifies Selective Inhibitors of ISG15‐Specific Protease mUSP18” (Angewandte Chemie (International Ed. in English), 2025):
Like-named read-outs stand apart in the source and are kept apart here.

Target: T1, mUSP18 (Mus musculus, UniProt Q9WTV6)
T1 construct: (46-368); His-tag (N); made in house
T1 sequence (Q9WTV6 46-368): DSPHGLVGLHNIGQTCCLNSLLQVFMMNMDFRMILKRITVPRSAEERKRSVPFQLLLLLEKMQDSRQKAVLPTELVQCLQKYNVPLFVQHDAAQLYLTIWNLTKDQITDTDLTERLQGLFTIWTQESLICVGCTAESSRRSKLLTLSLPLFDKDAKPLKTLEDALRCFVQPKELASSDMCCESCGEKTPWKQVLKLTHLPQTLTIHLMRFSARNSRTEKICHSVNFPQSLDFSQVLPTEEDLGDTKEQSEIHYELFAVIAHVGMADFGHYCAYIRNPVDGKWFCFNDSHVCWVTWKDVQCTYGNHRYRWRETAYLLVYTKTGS
Test: High-throughput screening, ISG15ct-RhoMP, single dose 1.25 µM
Type: biochemical, murine
Details: for inhibition at 1.25 µM: mUSP18 %inhibition

[1] = carboxylic acid (CA) building block alone, read-out: %inh CA only
[2] = carboxylic acid (CA) with coupling reagents DIC/HOBT, read-out: %inh CA + DIC/HOBT

Structure (SMILES)	inhibition at 1.25 µM [1] [%]	inhibition at 1.25 µM [2] [%]	inhibition of mUSP18 by individual CA's and coupling reagents (screened with and without DIC/HOBt)
O=C(O)c1cc(COc2ccc(F)cc2F)on1 [CA417]	-8.45	-7.97	
O=C(O)C(c1ccccc1)n1cnnn1 (stereo not drawn) [CA225]	-0.48	-0.48	
Cc1cc(COc2ccc(C(=O)O)cc2Br)no1 [CA257]	1.45	15.8	
COc1ccc(CN2CCC2C(=O)O)cc1 (stereo not drawn) [CA312]	3.67	-3.27	
Cc1oc(-c2cccs2)nc1C(=O)O [CA346]	8.25	12.6	
O=C(O)c1cccc(-c2ncn[nH]2)c1 [CA215]	8.13	1.55	
O=C(O)c1cn(C2CCC2)nn1 [CA114]	23.9	9	
O=C(O)c1cccnc1-n1cccn1 [CA430]	-3.79	17	
CN(C(=O)c1cccs1)c1ccccc1C(=O)O [CA100]	16.4	10.5	
CC(C)c1cc(C(=O)O)n(-c2ccccc2)n1 [CA460]	-1.54	-0.28	
C#CCCC(=O)O [CA014]	-1.43	-9.92	
CC(C)C(=O)O [CA005]	-4.83	-18	
Cc1oc(-c2ccco2)nc1CC(=O)O [CA128]	4.02	9.87	
O=C(O)c1cnnn1-c1ccccc1Cl [CA124]	10.7	3.42	
O=C(O)Cc1coc(-c2cccs2)n1 [CA423]	8.99	-4.85	
Cc1ccc(-n2c(C)ccc2C)c(C(=O)O)c1 [CA96]	74.4	60	could inhibit mUSP18
O=C(O)C1(c2ccccc2Cl)CCOCC1 [CA178]	4.04	11.9	
O=C(O)c1csc(-c2cnccn2)n1 [CA142]	8.67	6.39	
O=C(O)C1CCN(c2ccc(=O)[nH]n2)CC1 [CA173]	8.54	5.44	
O=C(O)c1cc(-c2ccc(Cl)s2)[nH]n1 [CA148]	7.78	9.65	

Structure (SMILES)	inhibition at 1.25 µM [1] [%]	inhibition at 1.25 µM [2] [%]	inhibition of mUSP18 by individual CA's and coupling reagents (screened with and without DIC/HOBt)
Cc1cc(-c2nc(C)sc2CC(=O)O)c(C)s1 [CA184]	3.02	10.3	
COc1ccc(C(=O)O)cc1S(=O)(=O)NCCc1ccccn1 [CA259]	13.5	2.38	
Cc1cc(NS(=O)(=O)c2cccc(C(=O)O)c2)no1 [CA180]	2.04	3.97	
O=C(O)Cc1ccccc1[N+](=O)[O-] [CA013]	7.76	-7.61	
O=C(O)c1cccc(S(=O)(=O)NCC2CCCO2)c1 (stereo not drawn) [CA139]	14.3	-1.37	
CN1CCC(C(=O)O)CC1 [CA087]	-3.93	-14.3	
CC1=NN(c2cccc(Br)c2)C(=O)C1CC(=O)O (stereo not drawn) [CA446]	-10.1	26.8	
O=C(O)c1ccccc1OCc1cccs1 [CA407]	-5.56	33.9	
O=C(O)c1ccc(S(=O)(=O)NC2CC2)cc1 [CA132]	7.6	4.16	
Cc1noc(C)c1S(=O)(=O)N1CCCC1C(=O)O (stereo not drawn) [CA342]	2.95	1.55	
O=C(O)CC1C(=O)Nc2ccccc21 (stereo not drawn) [CA078]	-7.04	-14.2	
O=C(O)c1ccnc(N2CCOCC2)n1 [CA264]	8.23	4.28	
COC1CC(C(=O)O)N(C(=O)OCc2ccccc2)C1 (stereo not drawn) [CA464]	-0.15	-1.5	
Cc1csc(-c2cccc(C(=O)O)c2)n1 [CA416]	-3.85	-4.32	
Cc1ccc(C=CS(=O)(=O)N2CCC(C(=O)O)CC2)cc1 [CA426]	-0.61	-6.87	
Cc1cc(C(=O)O)c(C)n1-c1cccnc1 [CA297]	-2.57	-1.91	
O=C(O)c1cc(N2CCOCC2)ccn1 [CA285]	2.02	-5.92	
O=C(O)C1CCCN(c2ncccc2C(F)(F)F)C1 (stereo not drawn) [CA440]	-5.84	-2.29	
O=C(O)C1CC1 [CA077]	-6.84	-14.4	
Cc1cc(C)n(-c2ccc(Cl)c(C(=O)O)n2)n1 [CA420]	-5.16	-0.88	
